The source of these data is patent publication US20220184172A1, “AMPK/CASPASE-6 AXIS CONTROLS LIVER DAMAGE IN NONALCOHOLIC STEATOHEPATITIS” (The Regents of the University of California, priority 2019, published 2022).

One assay relates to CD-HFD fed C57BL/6J mice. Kind of assay: AMPK agonist A-769662 in CD-HFD-induced NASH, C57BL/6J mice. It is filed as in vivo. As for the experimental part: FIGS. 4A-4L. Both an AMPK agonist and a caspase-6 inhibitor therapeutically improve liver damage. FIG. 4A-4I. C57BL/6J mice were fed CD-HFD for 6 weeks, followed by intraperitoneally injection of 25 mg/kg A-769662 or vehicle daily for 2 weeks while continuous CD-HFD. FIG. 4A. Liver sections stained as indicated: TUNEL and DAPI. In the merged image section, the different stains correspond to the grayscale shades as indicated in the single stained images to the left. Scale bar=50 μm. FIG. 4B. Quantification of TUNEL-positive nuclei per field in FIG. 4A. n=7. FIG. 4C-4E. Serum ALT (FIG. 4C), AST (FIG. 4D) and ALP (FIG. 4E). n=7. FIG. 4F. H&E and Sirius red staining of liver sections as indicated. Scale bar=100 μm. FIG. 4G. Quantification of liver fibrosis area (% of total area) in FIG. 4F. n=7. FIG. 4H. Liver hydroxyproline. n=8. FIG. 4I. Expression of Tgfb, Timp1, Col1a1, Col3a1, Pdgfa, Pdgfb, Pdgfra and Ddr2 in livers. n=8. *, P<0.05, Student's unpaired t test. FIGS. 4J-4L. Flox and LAKO mice were fed CD-HFD for 6 weeks, followed by intraperitoneally injection of 5 mg/kg VEID (SEQ ID NO: 71) or vehicle every other day for 2 weeks while continuous feeding. FIG. 4J. Liver sections stained as indicated (TUNEL and DAPI); in the merged image sections, the different stains correspond to the grayscale shades as indicated in the single stained images to the left. Scale bar=50 μm. FIG. 4K. Quantification of TUNEL-positive nuclei per field in FIG. 4J. n=5-6. FIG. 4L. Serum ALT. n=5-6. Mean±SEM. *, P<0.05, two-way ANOVA. FIG. 4 discloses “VEID” as SEQ ID NO: 71.
FIGS. 5A-5K. AMPK phosphorylates caspase-6 to inhibit its cleavage and activation. FIG. 5A. Primary hepatocytes were pretreated 40 μM A-769662 for 1 hr, then treated 30 μg/ml CHX and 50 ng/ml TNFα for 2 hrs. IB analysis of cell lysates. n=3. Mean±SD. *, P<0.05, two-way ANOVA. FIG. 5B. Primary hepatocytes were pretreated 40 μM A-769662 for 1 hr, then treated 250 μM BSA-conjugated palmitic acid (PA) for 2 hrs. Cell lysates were subject to caspase-6 activity assay. Mean±SD. *, P<0.05. FIG. 5C. Caspase-6 Ser^257 locates within AMPK substrate motif. FIG. 5C. discloses SEQ ID NOS 57-63, respectively, in order of appearance. FIG. 5D. In vitro kinase assay using recombinant caspase-6, and recombinant AMPKα1β1γ1 or AMPKα2β1γ1 active kinase. FIG. 5E. Alignment of caspase-6 sequence. FIG. 5E. discloses SEQ ID NOS 64-67, respectively, in order of appearance. FIG. 5F. HEK293T cells overexpressing caspase-6-myc WT, S^257A, S^257D or S^257E mutant were treated with 10 μg/ml CHX and 25 ng/ml TNFα for 2 hrs. IB analysis of cell lysates. FIGS. 5G-5J. C57BL/6J mice were fed CD-HFD for 6 weeks, followed by intraperitoneally injection of 25 mg/kg A-769662 or vehicle daily for 2 weeks while continuous CD-HI-D. Mice were sacrificed 6 hrs after last injection. FIG. 5G. IB analysis of liver lysates. n=5. FIG. 5H. Liver lysates were subject to caspase-6 activity assay. n=7. FIG. 5I. Liver sections stained as indicated therein (aCasp6 and DAPI); in the merged image sections, the different stains correspond to the grayscale shades as indicated in the single stained images to the left. Scale bar=50 μm. FIG. 5J. Quantification of aCasp6 staining per field in FIG. 5I. n=7. Mean±SEM. *, P<0.05, Student's unpaired t test. FIG. 5K. IB analysis of liver lysates from C57BL/6J mice fed ND or CD-HFD. Note: AMPK and pAMPK blots are the same as in FIG. 1B.
FIGS. 13A-13I. A-769662 improves liver damage through AMPK activation in hepatocytes in NASH. C57BL/6J mice were fed with CD-HFD for 8 weeks. After 6 weeks of CD-HFD feeding, mice were intraperitoneally injected with 25 mg/kg A-769662 or vehicle daily for 2 weeks along with continuous CD-HFD feeding. FIG. 13A. Schematic diagram of experimental design. FIG. 13B-13C. Body weight (FIG. 13B) and liver weight (FIG. 13C) of indicated mice. n=7. FIG. 13D. Measurement of liver triglyceride (TG) of indicated mice. n=7. FIG. 13E. […]

Assay [1] has as its system caspase-6 activity in primary hepatocytes. As to the kind of experiment: Caspase-6 activity induced by palmitic acid in primary hepatocytes. It is filed as cell-based, mice. The conditions noted are these: 40 μM pretreatment 1 hr, then 250 μM BSA-conjugated palmitic acid 2 hrs. As for the experimental part: FIGS. 5A-5K. AMPK phosphorylates caspase-6 to inhibit its cleavage and activation. FIG. 5A. Primary hepatocytes were pretreated 40 μM A-769662 for 1 hr, then treated 30 μg/ml CHX and 50 ng/ml TNFα for 2 hrs. IB analysis of cell lysates. n=3. Mean±SD. *, P<0.05, two-way ANOVA. FIG. 5B. Primary hepatocytes were pretreated 40 μM A-769662 for 1 hr, then treated 250 μM BSA-conjugated palmitic acid (PA) for 2 hrs. Cell lysates were subject to caspase-6 activity assay. Mean±SD. *, P<0.05. FIG. 5C. Caspase-6 Ser^257 locates within AMPK substrate motif. FIG. 5C. discloses SEQ ID NOS 57-63, respectively, in order of appearance. FIG. 5D. In vitro kinase assay using recombinant caspase-6, and recombinant AMPKα1β1γ1 or AMPKα2β1γ1 active kinase. FIG. 5E. Alignment of caspase-6 sequence. FIG. 5E. discloses SEQ ID NOS 64-67, respectively, in order of appearance. FIG. 5F. HEK293T cells overexpressing caspase-6-myc WT, S^257A, S^257D or S^257E mutant were treated with 10 μg/ml CHX and 25 ng/ml TNFα for 2 hrs. IB analysis of cell lysates. FIGS. 5G-5J. […] Quantification of aCasp6 staining per field in FIG. 5I. n=7. […]
Cell/tissue was homogenized with lysis buffer. Caspase-6 activity was determined with Caspase-6 Colorimetric Assay Kit (Biovision, Cat. K115), according to manufacturer's instruction. […]

The mark [2] stands for this setting: 25 mg/kg i.p. daily for 2 weeks, CD-HFD.
Setting [3] is: 25 mg/kg i.p. daily for 2 weeks, CD-HFD, sacrificed 6 hrs after last injection.
Setting [4] is: 25 mg/kg i.p. once per day for two weeks after 6 weeks CD-HFD.

Each structure is given as a SMILES string.

As for `N#Cc1c(O)c2c(-c3ccc(-c4ccccc4O)cc3)csc2[nH]c1=O` [A-769662], in the assay with CD-HFD fed C57BL/6J mice (25 mg/kg i.p. daily for 2 weeks after 6 weeks CD-HFD), the “hepatic fibrosis (Sirius red fibrosis area, liver hydroxyproline)” value is on record as “attenuated”. Moreover, in the assay with CD-HFD fed C57BL/6J mice (setting [2]), the “expression of Col1a1 in liver” value is reported as “significantly reduced”, the “expression of Col3a1 in liver” value is recorded as “significantly reduced”, the “expression of Ddr2 in liver” value is “without effect” and the “expression of Pdgfa in liver” value is given as “significantly reduced”. Moreover, in the assay with CD-HFD fed C57BL/6J mice (setting [2]), the “expression of Pdgfb in liver” value is “significantly reduced”, the “expression of Pdgfra in liver” value was “significantly reduced”, the “expression of Tgfb in liver” value was “without effect” and the “expression of inflammation marker gene Adgre1 in liver” value was “without effect”. Further, the “expression of inflammation marker gene Ccl2 in liver” value in the assay on CD-HFD fed C57BL/6J mice (setting [2]) is “without effect”. Also, the “aCasp6 (active caspase-6) staining of liver sections” value with CD-HFD fed C57BL/6J mice (25 mg/kg i.p. daily for 2 weeks, CD-HFD-induced NASH) is on record as “decreased”. Besides, in the assay on CD-HFD fed C57BL/6J mice (setting [3]), the “caspase-6 activity in vivo (liver lysates)” value was “decreased” and the “procaspase-6 Ser257 phosphorylation (IB of liver lysates)” value is recorded as “significantly increased”. Moreover, in the assay with CD-HFD fed C57BL/6J mice (setting [4]), the “hepatic TG” value is reported as “no effect”; the “liver damage (serum ALT, AST, ALP)” value was “improved”; the “number of apoptotic cells (TUNEL-positive nuclei per field)” value is on record as “significantly reduced”. In addition, the “induction of caspase-6 activity by PA” value in assay [1] is reported as “inhibited”.
